Measurements as given in ChEMBL document CHEMBL3352484, “Modified 2,4-diaminopyrimidine-based dihydrofolate reductase inhibitors as potential drug scaffolds against Bacillus anthracis” (Bioorg Med Chem, 2015).
≈ marks a conversion by molar mass, not a printed value.

Tested on: Bacillus anthracis
Assay: Antimicrobial activity against Bacillus anthracis assessed as growth inhibition measured as turbidity
Format: functional

| SMILES | MIC |
| --- | --- |
| CCCC1c2ccccc2C=NN1C(=O)/C=C/c1cc(Cc2cnc(N)nc2N)cc(OC(=O)c2ccc(OC)cc2)c1OC (racemic) | 8 µg/mL (≈ 13.2 µM) |
| CCCC1c2ccccc2C=NN1C(=O)/C=C/c1cc(Cc2cnc(N)nc2N)cc(OC(=O)c2ccc([N+](=O)[O-])cc2)c1OC (racemic) | 8 µg/mL (≈ 12.9 µM) |
| CCOc1c(/C=C/C(=O)N2N=Cc3ccccc3C2C=C(C)C)cc(Cc2cnc(N)nc2N)cc1OC (racemic) | 0.5 µg/mL (≈ 0.975 µM) |
| CCOc1cc(Cc2cnc(N)nc2N)cc(/C=C/C(=O)N2N=Cc3ccccc3C2C=C(C)C)c1OCC (racemic) | 1 µg/mL (≈ 1.9 µM) |
| COc1cc(C(=O)c2cnc(N)nc2N)cc(/C=C/C(=O)N2N=Cc3ccccc3C2C=C(C)C)c1OC (racemic) | > 128 µg/mL |
| CCCC1c2ccccc2C=NN1C(=O)/C=C/c1cc(Cc2cnc(N)nc2N)cc2c1OCO2 (racemic) | 32 µg/mL (≈ 68 µM) |
| CCCC1c2ccccc2C=NN1C(=O)/C=C/c1cc(Cc2cnc(N)nc2N)cc(OC(=O)c2ccc(OC(F)(F)F)cc2)c1OC (racemic) | 8 µg/mL (≈ 12.1 µM) |
| CCCC1c2ccccc2C=NN1C(=O)/C=C/c1cc(C(=O)c2cnc(N)nc2N)cc(OC)c1OC (racemic) | > 128 µg/mL |
| CCCOc1cc(Cc2cnc(N)nc2N)cc(/C=C/C(=O)N2N=Cc3ccccc3C2CCC)c1OC (racemic) | 4 µg/mL (≈ 7.77 µM) |
| COc1cc(Cc2cnc(N)nc2N)cc(OC)c1OC [TRIMETHOPRIM] | > 2050 µg/mL |
| CCCC1c2ccccc2C=NN1C(=O)/C=C/c1cc(Cc2cnc(N)nc2N)cc(OCc2ccc(C(F)(F)F)cc2)c1OC (racemic) | 8 µg/mL (≈ 12.7 µM) |
| CCCC1c2ccccc2C=NN1C(=O)/C=C/c1cc(Cc2cnc(N)nc2N)cc(OCc2ccc(F)cc2)c1OC (racemic) | 8 µg/mL (≈ 13.8 µM) |
| CCCC1c2ccccc2C=NN1C(=O)/C=C/c1cc(Cc2cnc(N)nc2N)cc(OC)c1OCC (racemic) | 2 µg/mL (≈ 4 µM) |
| CCCC1c2ccccc2C=NN1C(=O)/C=C/c1cc(Cc2cnc(N)nc2N)cc(OC(=O)c2ccccc2)c1OC (racemic) | 4 µg/mL (≈ 6.94 µM) |
| CCCC1c2ccccc2C=NN1C(=O)/C=C/c1cc(Cc2cnc(N)nc2N)cc(OCC)c1OCC (racemic) | 4 µg/mL (≈ 7.77 µM) |
| CCCC1c2ccccc2C=NN1C(=O)/C=C/c1cc(Cc2cnc(N)nc2N)cc(OC)c1OCc1ccccc1 (racemic) | 4 µg/mL (≈ 7.11 µM) |
